Like-named read-outs stand apart in the source and are kept apart here.
Experiments:
[1] = tested on: AMO-1 human multiple myeloma tumor cell line; experiment: AMO-1 cell viability assay (CellTiter-Glo, 24 hours); type: cell-based; conditions: Homo sapiens, AMO1, 24 h, read-out: AMO-1 Viability IC50 (μM, 10% FBS), 10% FBS, 24 hours of compound treatment
GST-MCL-1 = GST-MCL-1 (Homo sapiens, UniProt Q07820); experiment: TR-FRET MCL-1 binding assay (competition with probe F-Bak)
Method: Tb-anti-GST antibody was purchased from Invitrogen (Catalog No. PV4216).
For the assay, an acoustic dispenser was used to prepare dilution series from 10 mM test compounds in 100% DMSO and directly transfer 160 nL into low volume 384-well assay plates. 8 μL of a protein/probe/antibody mix was then added to each well resulting in final concentrations listed below: • Test compound: 11 three-fold dilutions beginning at 25 μM
The samples were then mixed on a shaker for 1 minute and incubated for an additional 2 hours at room temperature. For each assay plate, a probe/antibody and protein/antibody/probe mixture were included as a negative and a positive control, respectively. Fluorescence was measured on the Envision (Perkin Elmer) using a 340/35 nm excitation filter and 520/525 (F-Bak) and 495/510 nm (Tb-labeled anti-his antibody) emission filters. […] The TR-FRET assay can be performed in the presence of varying concentrations of human serum (HS) or fetal bovine serum (FBS). Compounds were tested both without HS and in the presence of 10% HS.

[2] = tested on: NCI-H929 human multiple myeloma tumor cell line; experiment: NCI-H929 cell viability assay (CellTiter-Glo, 24 hours); type: cell-based; conditions: Homo sapiens, NCI-H929, 24 h, read-out: H929 Viability IC50 (μM, 10% FBS), 10% FBS, 24 hours of compound treatment
[3] = without HS, read-out: MCL-1 Binding Ki
[4] = MCL-1 Binding Ki (nM, 10% HS), in the presence of 10% HS (human serum)

Sequence of GST-MCL-1 (Q07820 whole entry): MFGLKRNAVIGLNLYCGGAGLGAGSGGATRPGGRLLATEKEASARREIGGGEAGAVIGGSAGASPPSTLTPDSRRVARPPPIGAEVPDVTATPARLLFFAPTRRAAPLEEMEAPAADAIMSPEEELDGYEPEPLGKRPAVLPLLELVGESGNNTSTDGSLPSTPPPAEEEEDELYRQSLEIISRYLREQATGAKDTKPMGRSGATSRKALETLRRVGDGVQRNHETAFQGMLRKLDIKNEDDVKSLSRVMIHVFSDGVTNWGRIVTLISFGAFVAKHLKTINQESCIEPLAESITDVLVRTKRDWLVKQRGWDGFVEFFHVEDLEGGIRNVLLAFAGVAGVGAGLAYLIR

SMILES	IC50 [1] [nM]	Ki (GST-MCL-1; read-out: MCL-1 Binding Ki (nM, 10% HS), in the presence of 10% HS (human serum)) [nM]	Ki (GST-MCL-1; [3]) [nM]	IC50 [2] [µM]	Ki (GST-MCL-1; [4]) [nM]
CO[C@@H]1CO[C@H]2[C@@H]1OC[C@H]2OCCOCCOC1CCC(c2nccc(COc3ccc4cc3C[C@H](C(=O)O)Oc3ncnc5sc(-c6ccc(F)cc6)c(c35)-c3c(C)c(Cl)c(c(Cl)c3C)O[C@H](CN3CCN(C)CC3)CO4)n2)CC1 (stereo partly drawn) [Example 138, (7R,16R)-19,23-dichloro-1-(4-fluorophenyl)-10-[(2-{(1r,4r)-4-[2-(2-{[(3R,3aR,6R,6aR)-6-methoxyhexahydrofuro[3,2-b]furan-3-yl]oxy}ethoxy)ethoxy]cyclohexyl}pyrimidin-4-yl)methoxy]-20,22-dimethyl-16-[(4-methylpiperazin-1-yl)methyl]-7,8,15,16-tetrahydro-18,21-etheno-13,9-(metheno)-6,14,17-trioxa-2-thia-3,5-diazacyclononadeca[1,2,3-cd]indene-7-carboxylic Acid]	2	0.049	0.007	0.00221	–
Cc1c(Cl)c2c(Cl)c(C)c1-c1c(-c3ccc(F)cc3)sc3ncnc(c13)O[C@@H](C(=O)O)Cc1cc(ccc1OCc1ccnc(N3C[C@H]4C[C@@H](C3)C4(F)F)n1)OC[C@@H](CN1CCN(C)CC1)O2 [Example 172, (7R,16R)-19,23-dichloro-10-({2-[(1R,5S)-6,6-difluoro-3-azabicyclo[3.1.1]heptan-3-yl]pyrimidin-4-yl}methoxy)-1-(4-fluorophenyl)-20,22-dimethyl-16-[(4-methylpiperazin-1-yl)methyl]-7,8,15,16-tetrahydro-18,21-etheno-13,9-(metheno)-6,14,17-trioxa-2-thia-3,5-diazacyclononadeca[1,2,3-cd]indene-7-carboxylic Acid]	0.966	–	0.141	0.00524	2.74
Cc1c(Cl)c2c(Cl)c(C)c1-c1c(-c3ccc(F)cc3)sc3ncnc(c13)O[C@@H](C(=O)O)Cc1cc(ccc1OCc1ccnc(-c3ccc(OCCN4CC5CCC(C4)O5)cc3)n1)OC[C@@H](CN1CCN(C)CC1)O2 [Example 170, (7R,16R)-19,23-dichloro-1-(4-fluorophenyl)-20,22-dimethyl-16-[(4-methylpiperazin-1-yl)methyl]-10-[(2-{4-[2-(8-oxa-3-azabicyclo[3.2.1]octan-3-yl)ethoxy]phenyl}pyrimidin-4-yl)methoxy]-7,8,15,16-tetrahydro-18,21-etheno-13,9-(metheno)-6,14,17-trioxa-2-thia-3,5-diazacyclononadeca[1,2,3-cd]indene-7-carboxylic Acid]	0.646	–	0.042	0.00278	1.85
Cc1c(Cl)c2c(Cl)c(C)c1-c1c(-c3ccc(F)cc3)sc3ncnc(c13)O[C@@H](C(=O)O)Cc1cc(ccc1OCc1ccnc(-c3ccc(CN4CCS(=O)(=O)CC4)cc3)n1)OC[C@@H](CN1CCN(C)CC1)O2 [Example 126, (7R,16R)-19,23-dichloro-10-[(2-{4-[(1,1-dioxo-1˜^6-thiomorpholin-4-yl)methyl]phenyl}pyrimidin-4-yl)methoxy]-1-(4-fluorophenyl)-20,22-dimethyl-16-[(4-methylpiperazin-1-yl)methyl]-7,8,15,16-tetrahydro-18,21-etheno-13,9-(metheno)-6,14,17-trioxa-2-thia-3,5-diazacyclononadeca[1,2,3-cd]indene-7-carboxylic Acid]	0.544	–	0.043	0.00169	0.39
COCCOCCOCCOCCOCCOCC1(c2nccc(COc3ccc4cc3C[C@H](C(=O)O)Oc3ncnc5sc(-c6ccc(F)cc6)c(c35)-c3c(C)c(Cl)c(c(Cl)c3C)O[C@H](CN3CCN(C)CC3)CO4)n2)CCCC1 [Example 76, (7R,16R)-19,23-dichloro-1-(4-fluorophenyl)-10-({2-[1-(2,5,8,11,14,17-hexaoxaoctadecan-1-yl)cyclopentyl]pyrimidin-4-yl}methoxy)-20,22-dimethyl-16-[(4-methylpiperazin-1-yl)methyl]-7,8,15,16-tetrahydro-18,21-etheno-13,9-(metheno)-6,14,17-trioxa-2-thia-3,5-diazacyclononadeca[1,2,3-cd]indene-7-carboxylic Acid]	0.409	–	0.16	0.000648	0.634
COCCOCCOC[C@@H]1CC=C(c2nccc(COc3ccc4cc3C[C@H](C(=O)O)Oc3ncnc5sc(-c6ccc(F)cc6)c(c35)-c3c(C)c(Cl)c(c(Cl)c3C)O[C@H](CN3CCN(C)CC3)CO4)n2)CC1 [Example 128, (7R,16R)-19,23-dichloro-1-(4-fluorophenyl)-10-({2-[(4S)-4-{[2-(2-methoxyethoxy)ethoxy]methyl}cyclohex-1-en-1-yl]pyrimidin-4-yl}methoxy)-20,22-dimethyl-16-[(4-methylpiperazin-1-yl)methyl]-7,8,15,16-tetrahydro-18,21-etheno-13,9-(metheno)-6,14,17-trioxa-2-thia-3,5-diazacyclononadeca[1,2,3-cd]indene-7-carboxylic Acid]	0.0939	–	0.027	0.000313	0.275
Cc1c(Cl)c2c(Cl)c(C)c1-c1c(-c3ccc(F)cc3)sc3ncnc(c13)O[C@@H](C(=O)O)Cc1cc(ccc1OCc1ccnc(-c3ccc(OCC4COCCOCCOCCOCCO4)cc3)n1)OC[C@@H](CN1CCN(C)CC1)O2 (stereo partly drawn) [Example 107, (7R,16R)-19,23-dichloro-1-(4-fluorophenyl)-20,22-dimethyl-16-[(4-methylpiperazin-1-yl)methyl]-10-[(2-{4-[(1,4,7,10,13-pentaoxacyclopentadecan-2-yl)methoxy]phenyl}pyrimidin-4-yl)methoxy]-7,8,15,16-tetrahydro-18,21-etheno-13,9-(metheno)-6,14,17-trioxa-2-thia-3,5-diazacyclononadeca[1,2,3-cd]indene-7-carboxylic Acid]	1.47	–	0.026	0.000552	0.412
COCCOCCOCCO[C@H]1CC[C@@H](c2nccc(COc3ccc4cc3C[C@H](C(=O)O)Oc3ncnc5sc(-c6ccc(F)cc6)c(c35)-c3c(C)c(Cl)c(c(Cl)c3C)O[C@H](CN3CCN(C)CC3)CO4)n2)CC1 [Example 70, (7R,16R)-19,23-dichloro-1-(4-fluorophenyl)-10-({2-[(1s,4s)-4-{2-[2-(2-methoxyethoxy)ethoxy]ethoxy}cyclohexyl]pyrimidin-4-yl}methoxy)-20,22-dimethyl-16-[(4-methylpiperazin-1-yl)methyl]-7,8,15,16-tetrahydro-18,21-etheno-13,9-(metheno)-6,14,17-trioxa-2-thia-3,5-diazacyclononadeca[1,2,3-cd]indene-7-carboxylic Acid]	0.263	–	0.012	0.000489	0.083
Cc1c(Cl)c2c(Cl)c(C)c1-c1c(-c3ccc(F)cc3)sc3ncnc(c13)O[C@@H](C(=O)O)Cc1cc(ccc1OCc1ccnc(C(C)(C)COCCOC[C@H]3COCCO3)n1)OC[C@@H](CN1CCN(C)CC1)O2 [Example 80, (7R,16R)-19,23-dichloro-10-({2-[1-(2-{[(2R)-1,4-dioxan-2-yl]methoxy}ethoxy)-2-methylpropan-2-yl]pyrimidin-4-yl}methoxy)-1-(4-fluorophenyl)-20,22-dimethyl-16-[(4-methylpiperazin-1-yl)methyl]-7,8,15,16-tetrahydro-18,21-etheno-13,9-(metheno)-6,14,17-trioxa-2-thia-3,5-diazacyclononadeca[1,2,3-cd]indene-7-carboxylic Acid]	0.189	–	0.107	0.000954	0.797
Cc1c(Cl)c2c(Cl)c(C)c1-c1c(-c3ccc(F)cc3)sc3ncnc(c13)O[C@@H](C(=O)O)Cc1cc(ccc1OCc1ccnc(-c3ccc(CCC(=O)O)cc3)n1)OC[C@@H](CN1CCN(C)CC1)O2 [Example 20, (7R,16R)-10-({2-[4-(2-carboxyethyl)phenyl]pyrimidin-4-yl}methoxy)-19,23-dichloro-1-(4-fluorophenyl)-20,22-dimethyl-16-[(4-methylpiperazin-1-yl)methyl]-7,8,15,16-tetrahydro-18,21-etheno-13,9-(metheno)-6,14,17-trioxa-2-thia-3,5-diazacyclononadeca[1,2,3-cd]indene-7-carboxylic Acid]	4.25	–	0.007	0.00804	0.165
COCCOCCOCCOc1ccccc1-c1nccc(COc2ccc3cc2C[C@@H](C(=O)O)Oc2ncnc4sc(-c5ccc(F)cc5)c(c24)-c2ccc(c(Cl)c2C)O[C@H](CN2CCN(C)CC2)CO3)n1 (atropisomer, axis not shown) [Example 2, (7S,16R,21S)-19-chloro-1-(4-fluorophenyl)-10-{[2-(2-{2-[2-(2-methoxyethoxy)ethoxy]ethoxy}phenyl)pyrimidin-4-yl]methoxy}-20-methyl-16-[(4-methylpiperazin-1-yl)methyl]-7,8,15,16-tetrahydro-18,21-etheno-9,13-(metheno)-6,14,17-trioxa-2-thia-3,5-diazacyclononadeca[1,2,3-cd]indene-7-carboxylic Acid]	210	–	4.1	0.276	76

Source: patent US20250313572A1, “MACROCYCLIC MCL-1 INHIBITORS AND METHODS OF USE” (AbbVie Inc., priority 2017, published 2025)
